Assay results: patent publication US20260256797A1, “NOVEL INDENONE DERIVATIVES AND USES THEREOF” (AMYLOID SOLUTION INC., priority 2022, published 2026)

What was measured:
Aβ1-42 = molecular target: T1, Aβ1-42 (Homo sapiens, UniProt P05067); assay: Amyloid-beta (Aβ) disaggregation test by thioflavin-T assay; type: biochemical; settings: 50 μM Aβ1-42 aggregated 24 hours, then compound 0-500 μM for 48 hours at 37° C.
T1 construct: dissolving Aβ1-42 or Tau-RD3 (Tau repeat domain 3) monomer in DMSO
Experimental: (§1) Each compound was dissolved in DMSO to a concentration of 10 mM. Subsequently, the compound was diluted with 6% DMSO (in DW) and used.
(§2) Specifically, amyloid-beta and tau solutions were prepared by dissolving Aβ1-42 or Tau-RD3 (Tau repeat domain 3) monomer in DMSO to a concentration of 10 mM. Thereafter, each solution was diluted with DW to a concentration of 100 μM and stored on ice. Meanwhile, thioflavin-T was dissolved in 50 mM glycine buffer (pH 8.5) to a concentration of 5 mM. Thereafter, the resulting solution was diluted with 50 mM glycine buffer (pH 8.5) to a concentration of 5 μM and stored in a dark room while light was blocked.
(§3) Each of the amyloid-beta and tau solutions prepared according to Experimental Example 1.1 was added to a 1.5 mL microcentrifuge tube to a concentration of 50 μM or 35 µM, and then a reaction was allowed to occur therebetween at 37° C. for 24 hours. Each of the 1.5 mL microcentrifuge tubes in which amyloid-beta aggregation and tau aggregation had been completed was treated with each compound at a concentrated of 500 μM to 0 μM through serial dilution, and then a further reaction was allowed to occur therebetween at 37° C. for 48 hours. 25 μL of the reaction solution in which the reaction had been completed was added to each well of a 96-well plate for fluorescence analysis, and 75 μL of the previously prepared thioflavin-T solution was added to each well. After a reaction was allowed to occur at room temperature in the dark for 5 minutes, fluorescence values were measured at excitation 450 nm and emission 485 nm by using a multi-mode microplate reader.
(§4) The fluorescence value of a group (control) treated with amyloid-beta or tau alone, followed by aggregation for 72 hours was converted into a percentage value and expressed as 100, and amyloid-beta and tau aggregates, in which aggregation had been completed upon reaction for 24 hours, were treated with each compound at each concentration and a further reaction was allowed to occur therebetween for 48 hours, and then fluorescence values thereof were measured and converted into relative values. The results thereof are illustrated in FIGS. 1 to 6 and 7 to 12. In addition, EC50 values of the compounds of the present disclosure for amyloid-beta and tau, respectively are summarized in Table 1.

[1] = molecular target: Tau-RD3 (Tau repeat domain 3) (Homo sapiens, UniProt P10636); assay: Tau disaggregation test by thioflavin-T assay; type: biochemical; settings: 35 μM Tau-RD3 aggregated 24 hours, then compound 0-500 μM for 48 hours at 37° C.
Chain of Tau-RD3 (Tau repeat domain 3) (P10636 623-653 limits assumed): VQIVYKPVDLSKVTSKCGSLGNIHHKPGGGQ
Experimental: as §1, §2, §3, §4

T1 sequence (P05067 672-713 limits assumed): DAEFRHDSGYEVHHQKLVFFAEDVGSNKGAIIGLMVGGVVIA

SMILES	EC50 (Aβ1-42) [µM]	EC50 [1] [µM]
COc1ccc(OCCOc2ccc3c(c2)C(=O)C(c2ccc(F)cc2)=C3c2ncsc2C)cc1OC [Compound 23, 6-(2-(3,4-dimethoxyphenoxy)ethoxy)-2-(4-fluorophenyl)-3-(5-methylthiazol-4-yl)-1H-inden-1-one]	4.1	5.2
O=C1C(c2cccnc2)=C(c2ccoc2)c2ccc(OCCCCc3ccccc3)cc21 [Compound 39, 3-(furan-3-yl)-6-(4-phenylbutoxy)-2-(pyridin-3-yl)-1H-inden-1-one]	2.6	10.7
Cc1scnc1C1=C(c2ccc(F)cc2)C(=O)c2cc(OCCOc3ccc4c(c3)OCO4)ccc21 [Compound 24, 6-(2-(benzo[d][1,3]dioxol-5-yloxy)ethoxy)-2-(4-fluorophenyl)-3-(5-methylthiazol-4-yl)-1H-inden-1-one]	99.6	> 500
Cc1ncsc1C1=C(c2cccnc2)C(=O)c2cc(OCOCc3ccccc3)ccc21 [Compound 16, 6-((benzyloxy)methoxy)-3-(4-methylthiazol-5-yl)-2-(pyridin-3-yl)-1H-inden-1-one]	12.5	96.5
COc1ccc(C2=C(c3ncsc3C)c3ccc(OCOCc4ccccc4)cc3C2=O)cc1 [Compound 20, 6-((benzyloxy)methoxy)-2-(4-methoxyphenyl)-3-(5-methylthiazol-4-yl)-1H-inden-1-one]	11.9	478
Cc1scnc1C1=C(c2cccs2)C(=O)c2cc(OCOCc3ccccc3)ccc21 [Compound 30, 6-((benzyloxy)methoxy)-3-(5-methylthiazol-4-yl)-2-(thiophen-2-yl)-1H-inden-1-one]	3.7	410
O=C1C(c2cccnc2)=C(c2ccoc2)c2ccc(OCCCc3ccccc3)cc21 [Compound 9, 3-(furan-3-yl)-6-(3-phenylpropoxy)-2-(pyridin-3-yl)-1H-inden-1-one]	19.1	53.6
COc1ccc(C2=C(c3ncsc3C)c3ccc(OCCCCc4ccccc4)cc3C2=O)cc1 [Compound 19, 2-(4-methoxyphenyl)-3-(5-methylthiazol-4-yl)-6-(4-phenylbutoxy)-1H-inden-1-one]	11.6	338
Cc1scnc1C1=C(c2ccc(F)cc2)C(=O)c2cc(OCCOc3ccncc3)ccc21 [Compound 25, 2-(4-fluorophenyl)-3-(5-methylthiazol-4-yl)-6-(2-(pyridin-4-yloxy)ethoxy)-1H-inden-1-one]	7.6	> 500
Cc1scnc1C1=C(c2cncnc2)C(=O)c2cc(OCCOc3ccc(F)c(F)c3)ccc21 [Compound 27, 6-(2-(3,4-difluorophenoxy)ethoxy)-3-(5-methylthiazol-4-yl)-2-(pyrimidin-5-yl)-1H-inden-1-one]	237	> 500
Cc1scnc1C1=C(c2cccs2)C(=O)c2cc(OCCc3ccccc3)ccc21 [Compound 28, 3-(5-methylthiazol-4-yl)-6-phenethoxy-2-(thiophen-2-yl)-1H-inden-1-one]	8.3	310
O=C1C(c2cccnc2)=C(c2cccs2)c2ccc(OCCCc3ccccc3)cc21 [Compound 6, 6-(3-phenylpropoxy)-2-(pyridin-3-yl)-3-(thiophen-2-yl)-1H-inden-1-one]	3.2	16.2
Cc1ncsc1C1=C(c2cccnc2)C(=O)c2cc(OCCCc3ccncc3)ccc21 [Compound 13, 3-(4-methylthiazol-5-yl)-2-(pyridin-3-yl)-6-(3-(pyridin-4-yl)propoxy)-1H-inden-1-one]	110	1.5
Cc1scnc1C1=C(Br)C(=O)c2cc(OCCCN3CCOCC3)ccc21 [Compound 5, 2-bromo-3-(5-methylthiazol-4-yl)-6-(3-morpholinopropoxy)-1H-inden-1-one]	65.6	344
Cc1ncsc1C1=C(c2ccccc2CC#N)C(=O)c2cc(OCCCc3ccccc3)ccc21 [Compound 2, 2-(2-(3-(4-methylthiazol-5-yl)-1-oxo-6-(3-phenylpropoxy)-1H-inden-2-yl)phenyl) acetonitrile]	92.9	321
Cc1scnc1C1=C(c2cncnc2)C(=O)c2cc(OCCOc3ccc(Cl)c(Cl)c3)ccc21 [Compound 26, 6-(2-(3,4-dichlorophenoxy)ethoxy)-3-(5-methylthiazol-4-yl)-2-(pyrimidin-5-yl)-1H-inden-1-one]	2.4	4.8
Cc1ncsc1C1=C(c2cccnc2)C(=O)c2cc(OCCCc3ccccc3)ccc21 [Compound 1, 3-(4-methylthiazol-5-yl)-6-(3-phenylpropoxy)-2-(pyridin-3-yl)-1H-inden-1-one]	8.2	19.2
COc1ccc(OCCOc2ccc3c(c2)C(=O)C(c2ccc(F)cc2)=C3c2ncsc2C)cc1 [Compound 22, 2-(4-fluorophenyl)-6-(2-(4-methoxyphenoxy)ethoxy)-3-(5-methylthiazol-4-yl)-1H-inden-1-one]	18.5	60.3
Cc1scnc1C1=C(c2cccnc2)C(=O)c2cc(OCCCc3ccccc3)ccc21 [Compound 8, 3-(5-methylthiazol-4-yl)-6-(3-phenylpropoxy)-2-(pyridin-3-yl)-1H-inden-1-one]	1.9	4.2

Second part, the molecule after the results:

EC50 (Aβ1-42) [µM]	EC50 [1] [µM]	SMILES
1.8	2.8	COc1ccc(OCCOc2ccc3c(c2)C(=O)C(c2cccnc2)=C3c2ccoc2)cc1OC [Compound 43, 6-(2-(3,4-dimethoxyphenoxy)ethoxy)-3-(furan-3-yl)-2-(pyridin-3-yl)-1H-inden-1-one]
31.2	426	Cc1scnc1C1=C(c2ccc(C(F)(F)F)cc2)C(=O)c2cc(OCCOc3ccc4c(c3)OCO4)ccc21 [Compound 34, 6-(2-(benzo[d][1,3]dioxol-5-yloxy)ethoxy)-3-(5-methylthiazol-4-yl)-2-(4-(trifluoromethyl)phenyl)-1H-inden-1-one]
46.3	470	Cc1scnc1C1=C(c2cccs2)C(=O)c2cc(OCCOc3ccc(F)c(F)c3)ccc21 [Compound 37, 6-(2-(3,4-difluorophenoxy)ethoxy)-3-(5-methylthiazol-4-yl)-2-(thiophen-2-yl)-1H-inden-1-one]
31.2	124	COc1ccc(OCCOc2ccc3c(c2)C(=O)C(c2cccnc2)=C3c2ccoc2)cc1 [Compound 42, 3-(furan-3-yl)-6-(2-(4-methoxyphenoxy)ethoxy)-2-(pyridin-3-yl)-1H-inden-1-one]
26	> 500	Cc1scnc1C1=C(c2cccs2)C(=O)c2cc(OCCOc3ccc(Cl)c(Cl)c3)ccc21 [Compound 36, 6-(2-(3,4-dichlorophenoxy)ethoxy)-3-(5-methylthiazol-4-yl)-2-(thiophen-2-yl)-1H-inden-1-one]
1.8	2.7	O=C1C(c2cccnc2)=C(c2ccoc2)c2ccc(OCCOc3ccc4c(c3)OCO4)cc21 [Compound 44, 6-(2-(benzo[d][1,3]dioxol-5-yloxy)ethoxy)-3-(furan-3-yl)-2-(pyridin-3-yl)-1H-inden-1-one]
9.1	11.9	O=C1C(c2cccnc2)=C(c2ccoc2)c2ccc(OCCOc3ccncc3)cc21 [Compound 45, 3-(furan-3-yl)-2-(pyridin-3-yl)-6-(2-(pyridin-4-yloxy)ethoxy)-1H-inden-1-one]
12.8	166	Cc1scnc1C1=C(c2cccs2)C(=O)c2cc(OCCOc3ccccc3)ccc21 [Compound 31, 3-(5-methylthiazol-4-yl)-6-(2-phenoxyethoxy)-2-(thiophen-2-yl)-1H-inden-1-one]
1.4	2.1	O=C1C(c2cccnc2)=C(c2ccoc2)c2ccc(OCCOc3ccc(Cl)c(Cl)c3)cc21 [Compound 46, 6-(2-(3,4-dichlorophenoxy)ethoxy)-3-(furan-3-yl)-2-(pyridin-3-yl)-1H-inden-1-one]
1.5	1.9	CC(C)c1ccc(OCCOc2ccc3c(c2)C(=O)C(c2cccnc2)=C3c2ccoc2)cc1 [Compound 49, 3-(furan-3-yl)-6-(2-(4-isopropylphenoxy)ethoxy)-2-(pyridin-3-yl)-1H-inden-1-one]
1.1	4.8	O=C1C(c2cccnc2)=C(c2ccoc2)c2ccc(OCCOc3ccccc3)cc21 [Compound 41, 3-(furan-3-yl)-6-(2-phenoxyethoxy)-2-(pyridin-3-yl)-1H-inden-1-one]
1.7	57	O=C1C(c2cccnc2)=C(c2ccoc2)c2ccc(OCCOc3ccc(F)c(F)c3)cc21 [Compound 47, 6-(2-(3,4-difluorophenoxy)ethoxy)-3-(furan-3-yl)-2-(pyridin-3-yl)-1H-inden-1-one]
